{
  "source": "patent US20040092890A1",
  "about": "“Catheter lock solution including a photo-oxidant” (priority 2003, published 2004)",
  "key": {"Enterobacter Faecalis": {"test_system": "Enterobacter Faecalis", "test": "Effect of methylene blue on concentration of a gram positive organism without light exposure (FIG. 3)", "type": "cell-based", "method": "FIG. 3 is a representation of the effect of methylene blue (12 mg/100 ml) on concentration of a gram positive organism, Enterobacter Faecalis, without light exposure.\n(§1) In a series of tests, with a gram negative and a gram positive organism, methylene blue inactivated all bacteria within 1 day, while heparin and a 4% concentration of citrate caused no effect on gram positive organisms (FIGS. 2, 3). Methylene blue also advantageously colors the lock solution blue, which provides a useful tool to medical personnel in preventing confusion between the lock solution and any other solution that might be present in a syringe or the catheter.\nFIG. 3 is a representation of the effect of methylene blue (12 mg/100 ml) on concentration of a gram positive organism, Enterobacter Faecalis, without light exposure. […] It is expected that illumination will augment bacterial killing by methylene blue even more."}, "Escherichia Coli": {"test_system": "Escherichia Coli", "test": "Effect of methylene blue on concentration of a gram negative organism without light exposure (FIG. 2)", "type": "cell-based", "method": "FIG. 2 is a graph depicting the effect of methylene blue (12 mg/100 ml) on concentration of a gram negative organism, Escherichia Coli, without light exposure.\nas §1\nFIG. 2 is a representation of the effect of methylene blue (12 mg/100 ml) on concentration of a gram negative organism, Escherichia Coli, without light exposure. […] It is expected that illumination will augment bacterial killing by methylene blue even more."}, "gram-negative organisms": {"test_system": "gram-negative organisms", "test": "Killing of gram-negative organisms by methylene blue 0.01%", "details": "methylene blue 0.01% (10 mg/100 mL)"}, "[1]": {"test": "Relative density of citrate solutions (FIG. 6)", "type": "physicochemical", "description": "It is of course understood that the densities of citrate solutions increase as the concentrations of citrate therein increase.\nThe densities of various formulations of various catheter lock solutions are directly related to the citrate concentration, as reflected in the linear graph set forth in FIG. 6."}, "gram negative bacteria": {"test_system": "gram negative bacteria", "details": "large numbers of bacteria; cited from earlier work"}, "[2]": {"details": "methylene blue 12 mg/100 ml, without light exposure"}},
  "data": [
    {"compound": "CN(C)c1ccc2nc3ccc(=[N+](C)C)cc-3sc2c1", "note": "[methylene blue]", "values": [
      {"measurement": "Time to inactivate all bacteria", "setting": "Enterobacter Faecalis; gram positive organism", "value": "≤ 1", "unit": "days"},
      {"measurement": "Killing of Enterobacter Faecalis", "setting": "Enterobacter Faecalis; [2]", "value": "All Enterobacter are killed within one day"},
      {"measurement": "Time to inactivate all bacteria", "setting": "Escherichia Coli; gram negative organism", "value": "≤ 1", "unit": "days"},
      {"measurement": "Killing of E. Coli", "setting": "Escherichia Coli; [2]", "value": "All E. Coli are killed within one day"},
      {"measurement": "Killing of gram-negative organisms", "setting": "gram-negative organisms", "value": "kill gram-negative organisms within one day"}
    ]},
    {"compound": "heparin", "values": [
      {"measurement": "Effect on gram positive organisms", "setting": "Enterobacter Faecalis; heparin", "value": "no effect"}
    ]},
    {"compound": "O=C(O)CC(O)(CC(=O)O)C(=O)O", "note": "[citrate]", "values": [
      {"measurement": "Effect on gram positive organisms", "setting": "Enterobacter Faecalis; 4% concentration of citrate", "value": "no effect"},
      {"measurement": "Relative density", "setting": "[1]; 23% citrate", "value": 1.120},
      {"measurement": "Relative density", "setting": "[1]; citrate concentration of 0.24M", "value": "about 1.045"},
      {"measurement": "Time until all gram negative bacteria are killed", "setting": "gram negative bacteria", "value": "1 to 7", "unit": "days"}
    ]}
  ]
}
